Laboratory results taken from publication PMC9851200, “Multiparameter phenotypic screening for endogenous TFEB and TFE3 translocation identifies novel chemical series modulating lysosome function” (Autophagy, 2022).

Key:
endogenous TFEB = experiment: TFEB nuclear translocation, immunocytochemistry high-content imaging; assay type: cell-based; settings: PKIS2 primary screening
endogenous TFE3 = experiment: TFE3 nuclear translocation, immunocytochemistry high-content imaging; assay type: cell-based; settings: PKIS2 primary screening
SH-SY5Y cells [1] = settings: PKIS2 primary screening; for DQ Intensity: DQ Red BSA intensity; for DQ Spot: DQ Red BSA spot count
Text: The PKIS2 Library was supplied by The Structural Genomics Consortium at the University of North Carolina at Chapel Hill.

SH-SY5Y cells [2] = experiment: AK (adenylate kinase) release ToxiLight cytotoxicity assay; settings: PKIS2 primary screening; also: reference of the scale not given here
SH-SY5Y cells [3] = experiment: Nuclear count from microscopy images (cellular growth and toxicity); settings: PKIS2 primary screening; also: reference of the scale not given here
For DQ Intensity in this document: reference of the scale not given here.
For DQ Spot in this document: reference of the scale not given here.

Row | Structure (SMILES) | TFEB % (endogenous TFEB) [%] | TFE3 % (endogenous TFE3) [%] | DQ Intensity (SH-SY5Y cells [1]) | DQ Spot (SH-SY5Y cells [1]) | AK (SH-SY5Y cells [2]) | Nuclear Count (SH-SY5Y cells [3])
1 | Cc1cc(N2CCC(NS(=O)(=O)c3ccc(F)cc3)CC2)nc(Nc2cccc(C#N)c2)n1 [GSK1653537] | 10.28 | 18.21 | 104.60 | 98.84 | 183.29 | 84.44
2 | COc1ccc(S(=O)(=O)NC2CCN(c3cc(C)nc(Nc4cccc(C#N)c4)n3)CC2)cc1 [GSK1653539] | 5.30 | 12.26 | 59.46 | 82.66 | 67.09 | 97.37
3 | Cc1cc(N2Cc3ccccc3C2)nc(Nc2ccc(S(=O)(=O)N3CCOCC3)cc2)n1 [GSK1669917] | 1.55 | 8.23 | 64.14 | 76.32 | 117.66 | 138.98
4 | N#Cc1ccc(CCNc2nccc(-c3cccc(CN4CCNCC4)c3)n2)cc1 [GSK2137462] | 6.80 | 23.49 | 97.76 | 74.26 | 187.39 | 74.38
5 | Nc1n[nH]c2cc(-c3ccccn3)ccc12 [GSK2189892] | 8.33 | 11.18 | 114.80 | 107.54 | 114.93 | 100.38
6 | Nc1cccc(-c2ccc3c(N)n[nH]c3c2)n1 [GSK2192730] | 5.46 | 14.87 | 80.06 | 98.33 | 126.21 | 95.98
7 | Nc1cccc(-c2ccc3c(N)n[nH]c3c2)c1 [GSK2193613] | 4.96 | 9.08 | 55.67 | 76.28 | 94.13 | 112.12
8 | CNc1nccc(-c2ccc3c(N)n[nH]c3c2)n1 [GSK2206003] | 3.51 | 14.62 | 68.32 | 96.17 | 89.67 | 71.44
9 | CN(C)c1cc(-c2ccc3c(N)n[nH]c3c2)nc(N)n1 [GSK2219329] | 4.04 | 13.03 | 87.81 | 98.17 | 83.85 | 85.79
10 | CC(C)Nc1cc(-c2ccc3c(N)n[nH]c3c2)nc(N)n1 [GSK2221681] | 4.14 | 7.71 | 78.82 | 81.03 | 98.58 | 122.37
11 | CNc1cc(-c2ccc3c(N)n[nH]c3c2)nc(N)n1 [GSK2224810] | 4.15 | 7.03 | 93.32 | 95.12 | 132.47 | 109.90
12 | Nc1nc(Nc2ccccc2)cc(-c2ccc3c(N)n[nH]c3c2)n1 [GSK2225749] | 8.82 | 13.67 | 84.54 | 97.02 | 135.05 | 92.29
13 | Nc1nc(-c2ccc3c(N)n[nH]c3c2)cc(N2CCCC2)n1 [GSK2227430] | 3.47 | 14.08 | 87.93 | 104.79 | 104.62 | 85.02
14 | Nc1nc(-c2ccc3c(N)n[nH]c3c2)cc(N2CCCCC2)n1 [GSK2228768] | 3.41 | 12.52 | 114.62 | 125.41 | 117.34 | 85.37
15 | CC(C)c1cc(-c2ccc3c(N)n[nH]c3c2)nc(N)n1 [GSK2250882] | 3.86 | 20.48 | 90.98 | 110.65 | 82.41 | 92.23
16 | C[C@@H]1CCCCN1c1cc(-c2ccc3c(N)n[nH]c3c2)nc(N)n1 [GSK2258759] | 3.40 | 12.52 | 61.15 | 84.49 | 88.63 | 88.84
17 | C[C@H]1CC[C@@H](C(=O)Nc2ccccc2)CN1c1cc(-c2ccc3c(N)n[nH]c3c2)nc(N)n1 [GSK2283293] | 5.47 | 11.00 | 68.06 | 92.27 | 101.77 | 95.91
